Measured values reported in patent US11207310B2 (PRILENIA NEUROTHERAPEUTICS LTD., priority 2016, dated 2021).
Read-outs that look alike come from different tables or passages of the source.

What was measured:
[1] = system: neuroblastoma cell line; conditions: S1R-dependent manner (Geva 2016); cited from earlier work
[2] = system: patients with HD
Description: The study also compared data from all patients to those obtained in HD subpopulations.
The primary efficacy variable and endpoint for this study was change from baseline in the UHDRS TMS (defined as the sum of all UHDRS motor domains ratings) at Week 26 or Week 52. The primary measure of motor impairment is the UHDRS motor assessment section, which was administered by a trained examiner. The first part of the motor assessment consisted of five TMS subscores, provided below. The sum total of all the 31 items is referred to as the Total Motor Score (TMS). The secondary efficacy variable and endpoint was change from baseline in the mPPT at Week 26 or Week 52.
It is a research tool which has been developed to provide a uniform assessment of the clinical features and course of HD. The TMS component of UHDRS comprises 31 assessments from the 15 items of the UHDRS, with each assessment rated on a 5-point scale from 0 (normal) to 4 (maximally abnormal).
The change from baseline in UHDRS-TMS was analyzed using a Repeated Measures model (SAS® MIXED procedure with REPEATED sub-command). The model includes the following fixed effects: categorical week in study by treatment interaction, center, neuroleptic use or no use, and baseline UHDRS-TMS score. The unstructured covariance matrix for repeated observations within patients was used.

[3] = system: patients with HD; remark: listed apart in the source
Description: Three variables were calculated: (1) The change from baseline to Week 26 and Week 52 in the sum of the UHDRS-TMS items except the Chorea items, (2) The change from baseline to Week 26 and Week 52 in the sum of the UHDRS-TMS items except the Dystonia items, and (3) The change from baseline to Week 26 and Week 52 in the sum of the UHDRS-TMS items except the Chorea and Dystonia items. These variables were analyzed in the same way as the primary efficacy endpoint except that the variable evaluation at baseline were included in the model instead of baseline UHDRS-TMS.

[4] = system: patients with HD; remark: listed apart in the source
Description: The independence scale of the UHDRS is a rating scale where the patient's degree of independence was given in percentage, from 10% (tube fed, total bed care) to 100% (no special care needed). […] Patients with a UHDRS-IS score >90% at the screening visit were not eligible for the study.
It is a rating scale where the patient's degree of independence is given in percentage, from 10% (tube fed, total bed care) to 100% (no special care needed). […] The scale was assessed at screening, baseline, weeks 4, 12, 20, 26/Early Termination, 28 and 52/Early Termination.

[5] = 45 mg bid, Week 26, Stage 1 BL TFC 11-13
[6] = 45 mg bid, Week 52, Stage 1 BL TFC 11-13
[7] = 67.5 mg bid, Week 26, Stage 1 BL TFC 11-13
[8] = 67.5 mg bid, Week 52, Stage 1 BL TFC 11-13
[9] = 90 mg bid, Week 26, Stage 1 BL TFC 11-13
[10] = 90 mg bid, Week 52, Stage 1 BL TFC 11-13
[11] = 112.5 mg bid, Week 26, Stage 1 BL TFC 11-13
[12] = 112.5 mg bid, Week 52, Stage 1 BL TFC 11-13

CCCN1CCC(c2cccc(S(C)(=O)=O)c2)CC1 [pridopidine, 4-[3-(methylsulfonyl)phenyl]-1-propyl-piperidine]
secretion of brain-derived neurotrophic factor (BDNF) [1]: enhances secretion | TMS change from baseline versus historical placebo in HART and MermaiHD ([2]; 45 mg bid (FIG. 5a)): significant | Change from baseline in TMS plotted over time ([2]; 45 mg bid, HD1 patients, after 52 weeks (FIG. 45b)): shows improvement in TMS score | Change from baseline in UHDRS TMS, Δ to placebo ([2]; 45 mg bid, Week 26, ALL): 1.42 | Change from baseline in UHDRS TMS, Δ to placebo [2, 5]: −4.47 | Change from baseline in UHDRS TMS, Δ to placebo ([2]; 45 mg bid, Week 52, ALL): 0.59 | Change from baseline in UHDRS TMS, Wk52 Δ to placebo [2, 6]: −5.32 | Change from baseline in UHDRS TMS, Δ to placebo ([2]; 67.5 mg bid, Week 26, ALL): 1.71 | Change from baseline in UHDRS TMS, Δ to placebo [2, 7]: −3 | Change from baseline in UHDRS TMS, Δ to placebo ([2]; 67.5 mg bid, Week 52, ALL): 2.55 | Change from baseline in UHDRS TMS, Wk52 Δ to placebo [2, 8]: −0.84 | TMS change from baseline versus historical placebo in HART and MermaiHD ([2]; 90 mg bid (FIG. 5a)): significant | Change from baseline in UHDRS TMS, Δ to placebo ([2]; 90 mg bid, Week 26, ALL): 0.67 | UHDRS TMS score at week 26 compared to baseline ([2]; 90 mg bid, Week 26, BL TFC 11-13 (HD1), read from FIG. 8b): about −8 | Change from baseline in UHDRS TMS, Δ to placebo [2, 9]: −6.15 | Change from baseline in UHDRS TMS, Δ to placebo ([2]; 90 mg bid, Week 52, ALL): 1.78 | Change from baseline in UHDRS TMS, Wk52 Δ to placebo [2, 10]: −7.1 | Total Motor Score (TMS) Change from Baseline ([2]; 90 mg bid, weeks 4-26 (FIG. 3)): largest treatment effect | Change from baseline in UHDRS TMS, Δ to placebo ([2]; 112.5 mg bid, Week 26, ALL): 2.1 | Change from baseline in UHDRS TMS, Δ to placebo [2, 11]: −4.79 | Change from baseline in UHDRS TMS, Δ to placebo ([2]; 112.5 mg bid, Week 52, ALL): 2.71 | Change from baseline in UHDRS TMS, Wk52 Δ to placebo [2, 12]: −0.92 | primary endpoint: change in TMS from baseline to week 26 compared with placebo ([2]; PRIDE-HD, 45 mg to 112.5 mg bid): did not meet the primary endpoint | TMS in the PRIDE-HD study ([2]; all doses, week 26): showed improvement at all doses at week 26, but did not reach statistical significance | percentage of patients categorized as Responders within the chorea+dystonia items ([3]; 45 mg bid, BL dystonia ≥4, completed 52 weeks, placebo 66.7%): 77.8% | Change from baseline in UHDRS TMS Excluding Dystonia, Δ to placebo ([3]; 45 mg bid, Week 26, ALL): 1.39 | Change from baseline in UHDRS TMS Involuntary Movements, Δ to placebo ([3]; 45 mg bid, Week 26, ALL): 0.89 | Change from baseline in UHDRS TMS Excluding Dystonia, Δ to placebo [3, 5]: −3.6 | Change from baseline in UHDRS TMS Involuntary Movements, Δ to placebo [3, 5]: −2.49 | Change from baseline in UHDRS TMS Excluding Chorea, Δ to placebo ([3]; 45 mg bid, Week 52, ALL): 0.05 | Change from baseline in UHDRS TMS Involuntary Movements, Δ to placebo ([3]; 45 mg bid, Week 52, ALL): 0.02 | Change from baseline in UHDRS TMS Excluding Chorea, Δ to placebo [3, 6]: −4.09 | Change from baseline in UHDRS TMS Involuntary Movements, Δ to placebo [3, 6]: −2.73 | Change from baseline in UHDRS TMS Excluding Dystonia, Δ to placebo ([3]; 67.5 mg bid, Week 26, ALL): 1.97 | Change from baseline in UHDRS TMS Involuntary Movements, Δ to placebo ([3]; 67.5 mg bid, Week 26, ALL): 0.48 | Change from baseline in UHDRS TMS Excluding Dystonia, Δ to placebo [3, 7]: −2.2 | Change from baseline in UHDRS TMS Involuntary Movements, Δ to placebo [3, 7]: −3.07 | Change from baseline in UHDRS TMS Excluding Chorea, Δ to placebo ([3]; 67.5 mg bid, Week 52, ALL): 1.31 | Change from baseline in UHDRS TMS Involuntary Movements, Δ to placebo ([3]; 67.5 mg bid, Week 52, ALL): 0.8 | Change from baseline in UHDRS TMS Excluding Chorea, Δ to placebo [3, 8]: −0.18 | Change from baseline in UHDRS TMS Involuntary Movements, Δ to placebo [3, 8]: −0.2 | Change from baseline in UHDRS TMS Excluding Dystonia, Δ to placebo ([3]; 90 mg bid, Week 26, ALL): 1.2 | Change from baseline in UHDRS TMS Involuntary Movements, Δ to placebo ([3]; 90 mg bid, Week 26, ALL): 0.01 | Change from baseline in UHDRS TMS Excluding Dystonia, Δ to placebo [3, 9]: −4.35 | Change from baseline in UHDRS TMS Involuntary Movements, Δ to placebo [3, 9]: −4 | Change from baseline in UHDRS TMS Excluding Chorea, Δ to placebo ([3]; 90 mg bid, Week 52, ALL): 1.67 | Change from baseline in UHDRS TMS Involuntary Movements, Δ to placebo ([3]; 90 mg bid, Week 52, ALL): −0.26 | Change from baseline in UHDRS TMS Excluding Chorea, Δ to placebo [3, 10]: −4.92 | Change from baseline in UHDRS TMS Involuntary Movements, Δ to placebo [3, 10]: −3.8 | Change from baseline in UHDRS TMS Excluding Dystonia, Δ to placebo ([3]; 112.5 mg bid, Week 26, ALL): 2.4 | Change from baseline in UHDRS TMS Involuntary Movements, Δ to placebo ([3]; 112.5 mg bid, Week 26, ALL): 0.76 | Change from baseline in UHDRS TMS Excluding Dystonia, Δ to placebo [3, 11]: −4.31 | Change from baseline in UHDRS TMS Involuntary Movements, Δ to placebo [3, 11]: −1.64 | Change from baseline in UHDRS TMS Excluding Chorea, Δ to placebo ([3]; 112.5 mg bid, Week 52, ALL): 1.94 | Change from baseline in UHDRS TMS Involuntary Movements, Δ to placebo ([3]; 112.5 mg bid, Week 52, ALL): 0.57 | Change from baseline in UHDRS TMS Excluding Chorea, Δ to placebo [3, 12]: −1.59 | Change from baseline in UHDRS TMS Involuntary Movements, Δ to placebo [3, 12]: 0.8 | Change from baseline in UHDRS Independence Scale, Δ to placebo ([4]; 45 mg bid, Week 26, ALL): 1.79 | UHDRS Independence Scale, change from baseline, Δ to placebo ([4]; 45 mg bid, Week 26, BL TFC<7, p value 0.8796): 0.3 | UHDRS Independence Scale, change from baseline, Wk 26 Δ to placebo ([4]; 45 mg bid, Week 26, BL TFC≥7, p value 0.0128): 2.22 | Change from baseline in UHDRS Independence Scale, Δ to placebo [4, 5]: 4.94 | Change from baseline in UHDRS Independence Scale, Δ to placebo ([4]; 45 mg bid, Week 52, ALL): 0.86 | UHDRS Independence Scale, change from baseline, Δ to placebo ([4]; 45 mg bid, Week 52, BL TFC<7, p value 0.5799): −1.85 | UHDRS Independence Scale, change from baseline, Δ to placebo ([4]; 45 mg bid, Week 52, BL TFC≥7, p value 0.1047): 1.99 | Change from baseline in UHDRS Independence Scale, Δ to placebo [4, 6]: 3.05 | Change from baseline in UHDRS Independence Scale, Δ to placebo ([4]; 67.5 mg bid, Week 26, ALL): 0.3 | UHDRS Independence Scale, change from baseline, Δ to placebo ([4]; 67.5 mg bid, Week 26, BL TFC<7, p value 0.8027): −0.44 | UHDRS Independence Scale, change from baseline, Wk 26 Δ to placebo ([4]; 67.5 mg bid, Week 26, BL TFC≥7, p value 0.2755): 0.99 | Change from baseline in UHDRS Independence Scale, Δ to placebo [4, 7]: 2.27 | Change from baseline in UHDRS Independence Scale, Δ to placebo ([4]; 67.5 mg bid, Week 52, ALL): 0.25 | UHDRS Independence Scale, change from baseline, Δ to placebo ([4]; 67.5 mg bid, Week 52, BL TFC<7, p value 0.2415): −3.46 | UHDRS Independence Scale, change from baseline, Δ to placebo ([4]; 67.5 mg bid, Week 52, BL TFC≥7, p value 0.0788): 2.22 | Change from baseline in UHDRS Independence Scale, Δ to placebo [4, 8]: 0.91 | Change from baseline in UHDRS Independence Scale, Δ to placebo ([4]; 90 mg bid, Week 26, ALL): 0.78 | UHDRS Independence Scale, change from baseline, Δ to placebo ([4]; 90 mg bid, Week 26, BL TFC<7, p value 0.9116): 0.2 | UHDRS Independence Scale, change from baseline, Wk 26 Δ to placebo ([4]; 90 mg bid, Week 26, BL TFC≥7, p value 0.0949): 1.48 | Change from baseline in UHDRS Independence Scale, Δ to placebo [4, 9]: 1.73 | Change from baseline in UHDRS Independence Scale, Δ to placebo ([4]; 90 mg bid, Week 52, ALL): −0.07 | UHDRS Independence Scale, change from baseline, Δ to placebo ([4]; 90 mg bid, Week 52, BL TFC<7, p value 0.0779): −5.25 | UHDRS Independence Scale, change from baseline, Δ to placebo ([4]; 90 mg bid, Week 52, BL TFC≥7, p value 0.0228): 2.79 | Change from baseline in UHDRS Independence Scale, Δ to placebo [4, 10]: 1.16 | Change from baseline in UHDRS Independence Scale, Δ to placebo ([4]; 112.5 mg bid, Week 26, ALL): 1.41 | UHDRS Independence Scale, change from baseline, Δ to placebo ([4]; 112.5 mg bid, Week 26, BL TFC<7, p value 0.3578): 1.65 | UHDRS Independence Scale, change from baseline, Wk 26 Δ to placebo ([4]; 112.5 mg bid, Week 26, BL TFC≥7, p value 0.0919): 1.51 | Change from baseline in UHDRS Independence Scale, Δ to placebo [4, 11]: 2.38 | Change from baseline in UHDRS Independence Scale, Δ to placebo ([4]; 112.5 mg bid, Week 52, ALL): 0.18 | UHDRS Independence Scale, change from baseline, Δ to placebo ([4]; 112.5 mg bid, Week 52, BL TFC<7, p value 0.8613): −0.52 | UHDRS Independence Scale, change from baseline, Δ to placebo ([4]; 112.5 mg bid, Week 52, BL TFC≥7, p value 0.7301): 0.44 | Change from baseline in UHDRS Independence Scale, Δ to placebo [4, 12]: −1.61 | change from baseline in the UHDRS-IS ([4]; any treatment group, week 52): not statistically significant in any treatment group
